Source: US10428080B2, “TBK/IKK inhibitor compounds and uses thereof” (Merck Patent GmbH, priority 2015, dated 2019)
Like-named read-outs stand apart in the source and are kept apart here.

Experiments:
TBK1 = biological target: T1, TBK1 (Homo sapiens, UniProt Q9UHD2); assay: TBK Biochemical Assay; conditions: read-out: TBK1 IC50
T1 sequence (Q9UHD2 1-729): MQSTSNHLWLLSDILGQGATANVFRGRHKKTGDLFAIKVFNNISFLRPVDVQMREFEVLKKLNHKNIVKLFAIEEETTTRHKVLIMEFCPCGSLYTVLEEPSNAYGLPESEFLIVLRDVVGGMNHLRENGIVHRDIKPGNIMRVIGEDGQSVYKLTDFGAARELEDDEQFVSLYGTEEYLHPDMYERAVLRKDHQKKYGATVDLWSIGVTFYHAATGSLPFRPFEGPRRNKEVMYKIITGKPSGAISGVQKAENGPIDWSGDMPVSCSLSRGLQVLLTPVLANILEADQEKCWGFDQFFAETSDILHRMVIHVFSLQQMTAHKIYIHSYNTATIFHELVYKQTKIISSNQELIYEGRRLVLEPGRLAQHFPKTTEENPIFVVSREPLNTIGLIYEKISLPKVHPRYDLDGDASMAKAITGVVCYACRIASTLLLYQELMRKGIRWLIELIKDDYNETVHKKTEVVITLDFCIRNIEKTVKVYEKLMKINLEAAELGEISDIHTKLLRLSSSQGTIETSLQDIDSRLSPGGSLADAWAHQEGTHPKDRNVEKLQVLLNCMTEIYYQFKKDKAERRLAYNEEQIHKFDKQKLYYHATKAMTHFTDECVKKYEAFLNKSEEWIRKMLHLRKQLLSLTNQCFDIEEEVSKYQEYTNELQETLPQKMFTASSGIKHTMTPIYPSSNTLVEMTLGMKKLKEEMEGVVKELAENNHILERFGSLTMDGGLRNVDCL
Summary of the method: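 TBK1 enzyme and substrate incubated with compounds (10-point 1:4 dilution, top 30 uM final, 1% DMSO) for 90 min at 25° C, then stopped. Substrate/product peaks read by microfluidic mobility-shift (Caliper LabChip); 10 uM staurosporine as full-inhibition control.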

IKKε = biological target: T2, IKKε (Homo sapiens, UniProt Q14164); assay: IKKe Biochemical Assay; conditions: read-out: IKKε IC50
T2 sequence (Q14164 1-716): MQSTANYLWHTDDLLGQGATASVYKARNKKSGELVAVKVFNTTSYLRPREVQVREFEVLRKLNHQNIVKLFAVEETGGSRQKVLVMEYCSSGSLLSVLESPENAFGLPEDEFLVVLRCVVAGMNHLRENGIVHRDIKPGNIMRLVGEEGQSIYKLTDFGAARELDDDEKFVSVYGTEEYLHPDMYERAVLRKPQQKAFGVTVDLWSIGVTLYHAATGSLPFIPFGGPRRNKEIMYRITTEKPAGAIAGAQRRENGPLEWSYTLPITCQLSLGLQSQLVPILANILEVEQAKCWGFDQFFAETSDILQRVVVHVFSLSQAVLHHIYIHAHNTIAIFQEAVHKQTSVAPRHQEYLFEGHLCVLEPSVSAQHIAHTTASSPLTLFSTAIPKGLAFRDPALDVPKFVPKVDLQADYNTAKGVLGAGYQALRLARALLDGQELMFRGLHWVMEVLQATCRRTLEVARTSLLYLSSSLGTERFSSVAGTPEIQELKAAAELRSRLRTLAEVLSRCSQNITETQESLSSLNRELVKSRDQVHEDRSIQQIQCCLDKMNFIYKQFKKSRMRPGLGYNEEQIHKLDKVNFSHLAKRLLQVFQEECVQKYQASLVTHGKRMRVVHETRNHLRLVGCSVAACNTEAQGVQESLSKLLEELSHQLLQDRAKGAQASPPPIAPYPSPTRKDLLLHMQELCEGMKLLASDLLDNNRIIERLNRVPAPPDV
Summary of the method: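 Recombinant IKKε and substrate were incubated with compound (10-point 1:4 series, top 30 uM final, 1% DMSO) for 90 min at 25° C, then stopped. Substrate-to-product conversion was read by LabChip microfluidic mobility shift; 10 uM staurosporine served as full-inhibition wells.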

[1] = test system: phosphorylation of the IRF-3 protein in MDA-MB-468 cells; assay: pIRF3 immunocytochemistry cell based assay; conditions: Homo sapiens
Summary of the method: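 MDA-MB-468 cells got compounds (10-point, 3-fold from 10 uM) for 1 h at 37 °C, then 10 ug/ml Poly(I:C) for 2 h. Fixed, permeabilized cells were immunostained for pIRF3 with AlexaFluor488 and counterstained with PI. % phosphorylation was read by laser scanning cytometry, and IC50 curves were fitted.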

[2] = MDA-MB-468 cells, Poly(I:C) stimulation, read-out: pIRF3 IC50

IC50 (TBK1)	IC50 (IKKε)	IC50 [1, 2]	Structure (SMILES)	IC50 ([1]; MDA-MB-468, read-out: pIRF3 IC50)
< 100 nM	< 100 nM	< 100 nM	COc1cc(C(=O)N2CC[C@H](N(C)C)C2)cnc1-c1cc2nccc(-c3ccc(N4CC[C@H](F)C4)c(C#N)c3)c2o1 [Compound 447, 5-{2-[5-((S)-3-Dimethylamino-pyrrolidine-1-carbonyl)-3-methoxy-pyridin-2-yl]-furo[3,2-b]pyridin-7-yl}-2-((S)-3-fluoro-pyrrolidin-1-yl)-benzonitrile]	
< 100 nM	< 100 nM	100 to 1000 nM	COc1nc(C(=O)N(C)C)ccc1-c1cc2nccc(-c3ccc(N4CC[C@H](F)C4)c(C#N)c3)c2o1 [Compound 314, 5-{7-[3-Cyano-4-((S)-3-fluoro-pyrrolidin-1-yl)-phenyl]-furo[3,2-b]pyridin-2-yl}-6-methoxy-pyridine-2-carboxylic acid dimethylamide]	
< 100 nM	< 100 nM	1000 to 5000 nM	N#Cc1cc(-c2ccnc3cc(-c4cnn(C5COC5)c4)oc23)ccc1OC1CCOCC1 [Compound 138]	
100 to 1000 nM	100 to 1000 nM	100 to 1000 nM	COc1cc(C(=O)N(C)C)ncc1-c1cc2nccc(-c3ccc(OC4CN(C)C4)c(C#N)c3)c2o1 [Compound 424, 5-(7-[3-cyano-4-[(1-methylazetidin-3-yl)oxy]phenyl]furo[3,2-b]pyridin-2-yl)-4-methoxy-N,N-dimethylpyridine-2-carboxamide]	
< 100 nM	< 100 nM	< 100 nM	COc1cc(C(=O)N2CCN(CCO)CC2)ccc1-c1cc2nccc(-c3ccc(OC4CCOCC4)c(C#N)c3)c2o1 [Compound 13, 5-(2-{4-[4-(2-Hydroxy-ethyl)-piperazine-1-carbonyl]-2-methoxy-phenyl}-furo[3,2-b]pyridin-7-yl)-2-(tetrahydro-pyran-4-yloxy)-benzonitrile]	
< 100 nM	< 100 nM	100 to 1000 nM	N#Cc1cc(-c2ccnc3cc(-c4ccc(C(=O)N[C@@H]5CNCC[C@H]5F)cc4)oc23)ccc1OC1CCOCC1 [Compound 141, 4-{7-[3-Cyano-4-(tetrahydro-pyran-4-yloxy)-phenyl]-furo[3,2-b]pyridin-2-yl}-N-((3R,4R)-4-fluoro-piperidin-3-yl)-benzamide]	
< 100 nM	< 100 nM	< 100 nM	COc1cc(C(=O)N2CCN(C)CC2)cnc1-c1cc2nccc(-c3ccc(N4CC[C@H](F)C4)c(C#N)c3)c2o1 [Compound 461, 2-(3(S)-fluoropyrrolidin-1-yl)-5-(2-[3-methoxy-5-[(4-methylpiperazin-1-yl)carbonyl]pyridin-2-yl]furo[3,2-b]pyridin-7-yl)benzonitrile]	
< 100 nM	< 100 nM	< 100 nM	COc1cc(C(=O)N(C)C)cnc1-c1cc2nccc(-c3ccc(OC4CCOCC4F)c(C#N)c3)c2o1 (stereo not drawn) [Compound 486, 6-{7-[3-Cyano-4-(3-fluoro-tetrahydro-pyran-4-yloxy)-phenyl]-furo[3,2-b]pyridin-2-yl}-5-methoxy-N,N-dimethyl-nicotinamide]	
< 100 nM	< 100 nM	100 to 1000 nM	COc1cc(C(=O)N2CCCC2)ccc1-c1cc2nccc(-c3ccc(OC4CCOCC4)c(C#N)c3)c2o1 [Compound 37, 5-{2-[2-Methoxy-4-(pyrrolidine-1-carbonyl)-phenyl]-furo[3,2-b]pyridin-7-yl}-2-(tetrahydro-pyran-4-yloxy)-benzonitrile]	
< 100 nM	< 100 nM	100 to 1000 nM	COc1cc(C(=O)N(C)C)cnc1-c1cc2nccc(-c3cnc(N4CCC(F)C4)c(C#N)c3)c2o1 (stereo not drawn) [Compound 489]	
< 100 nM	< 100 nM	100 to 1000 nM	COc1cc(C(=O)N2CC[C@@H](N(C)C)C2)ccc1-c1cc2nccc(-c3ccc(N4CC[C@H](F)C4)c(C#N)c3)c2o1 [Compound 33, 5-{2-[4-((R)-3-Dimethylamino-pyrrolidine-1-carbonyl)-2-methoxy-phenyl]-furo[3,2-b]pyridin-7-yl}-2-((S)-3-fluoro-pyrrolidin-1-yl)-benzonitrile]	
< 100 nM	< 100 nM	100 to 1000 nM	COc1cc(C(=O)NC2CCC(O)C2)ccc1-c1cc2nccc(-c3ccc(OC4CCOCC4)c(C#N)c3)c2o1 (stereo not drawn) [Compound 68, 4-{7-[3-Cyano-4-(tetrahydro-pyran-4-yloxy)-phenyl]-furo[3,2-b]pyridin-2-yl}-N-(3-hydroxy-cyclopentyl)-3-methoxy-benzamide]	
< 100 nM	< 100 nM	< 100 nM	COc1cc(C(=O)N2CC3CCC(C2)O3)ccc1-c1cc2nccc(-c3ccc(OC4CCOCC4)c(C#N)c3)c2o1 [Compound 58, 5-{2-[2-Methoxy-4-(8-oxa-3-aza-bicyclo[3.2.1]octane-3-carbonyl)-phenyl]-furo[3,2-b]pyridin-7-yl}-2-(tetrahydro-pyran-4-yloxy)-benzonitrile]	
< 100 nM	< 100 nM	100 to 1000 nM	COc1cc(C(=O)N(C)C)cnc1-c1cc2nccc(-c3ccc(OC4CCNCC4(F)F)c(C#N)c3)c2o1 (stereo not drawn) [Compound 403, 6-(7-[3-cyano-4-[(3,3-difluoropiperidin-4-yl)oxy]phenyl]furo[3,2-b]pyridin-2-yl)-5-methoxy-N,N-dimethylpyridine-3-carboxamide]	
< 100 nM	< 100 nM	< 100 nM	COc1cc(C(=O)N(C)C)ccc1-c1cc2nccc(-c3ccc(OC4CCNC4)c(C#N)c3)c2o1 (stereo not drawn) [Compound 108, 4-{7-[3-Cyano-4-(pyrrolidin-3-yloxy)-phenyl]-furo[3,2-b]pyridin-2-yl}-3-methoxy-N,N-dimethyl-benzamide]	
< 100 nM	< 100 nM	100 to 1000 nM	COc1cc(C(=O)N(C)C)ccc1-c1cc2nccc(-c3ccc(OCC4CCNCC4)c(C#N)c3)c2o1 [Compound 155, 4-{7-[3-Cyano-4-(piperidin-4-ylmethoxy)-phenyl]-furo[3,2-b]pyridin-2-yl}-3-methoxy-N,N-dimethyl-benzamide]	

Structure (SMILES)	IC50 (TBK1)	IC50 (IKKε)	IC50 [1, 2]	IC50 ([1]; MDA-MB-468, read-out: pIRF3 IC50)
COc1cc(C(=O)N2CC3CN(C)CC3C2)cnc1-c1cc2nccc(-c3ccc(N4CC[C@@H](F)C4)c(C#N)c3)c2o1 (stereo partly drawn) [Compound 452, 2-[(3R)-3-fluoropyrrolidin-1-yl]-5-[2-[3-methoxy-5-([5-methyl-octahydropyrrolo[3,4-c]pyrrol-2-yl]carbonyl)pyridin-2-yl]furo[3,2-b]pyridin-7-yl]benzonitrile]	< 100 nM	< 100 nM		100 to 1000 nM
COc1cc(C(=O)NC2CN3CCC2CC3)ccc1-c1cc2nccc(-c3ccc(N4CCC(F)C4)c(C#N)c3)c2o1 (stereo not drawn) [Compound 87, N-(1-Aza-bicyclo[2.2.2]oct-3-yl)-4-{7-[3-cyano-4-(3-fluoro-pyrrolidin-1-yl)-phenyl]-furo[3,2-b]pyridin-2-yl}-3-methoxy-benzamide]	< 100 nM	< 100 nM	100 to 1000 nM	
COc1cc(C(=O)NC2CN3CCC2CC3)ccc1-c1cc2nccc(-c3ccc(OC4CCOCC4)c(C#N)c3)c2o1 (stereo not drawn) [Compound 79, N-(1-Aza-bicyclo[2.2.2]oct-3-yl)-4-{7-[3-cyano-4-(tetrahydro-pyran-4-yloxy)-phenyl]-furo[3,2-b]pyridin-2-yl}-3-methoxy-benzamide]	< 100 nM	< 100 nM	100 to 1000 nM	
